Test results: paper PMC12154575, “Azvudine Suppresses Epithelial–Mesenchymal Transition in Hepatocellular Carcinoma by Targeting the Notch–HEY Signalling Pathway” (International Journal of Molecular Sciences, 2025)

Molecular target: T1, Jagged1 (Homo sapiens, UniProt P78504)
T1 construct: gene JAG1; full-length extracellular domain (C2 to EGF16, 1277-JG-050, R&D Systems) tagged with an Fc-tag (Jagged1-Fc)
Test: label-free microscale thermophoresis (MST)
Type: binding

T1 sequence (P78504 34-1067 limits assumed): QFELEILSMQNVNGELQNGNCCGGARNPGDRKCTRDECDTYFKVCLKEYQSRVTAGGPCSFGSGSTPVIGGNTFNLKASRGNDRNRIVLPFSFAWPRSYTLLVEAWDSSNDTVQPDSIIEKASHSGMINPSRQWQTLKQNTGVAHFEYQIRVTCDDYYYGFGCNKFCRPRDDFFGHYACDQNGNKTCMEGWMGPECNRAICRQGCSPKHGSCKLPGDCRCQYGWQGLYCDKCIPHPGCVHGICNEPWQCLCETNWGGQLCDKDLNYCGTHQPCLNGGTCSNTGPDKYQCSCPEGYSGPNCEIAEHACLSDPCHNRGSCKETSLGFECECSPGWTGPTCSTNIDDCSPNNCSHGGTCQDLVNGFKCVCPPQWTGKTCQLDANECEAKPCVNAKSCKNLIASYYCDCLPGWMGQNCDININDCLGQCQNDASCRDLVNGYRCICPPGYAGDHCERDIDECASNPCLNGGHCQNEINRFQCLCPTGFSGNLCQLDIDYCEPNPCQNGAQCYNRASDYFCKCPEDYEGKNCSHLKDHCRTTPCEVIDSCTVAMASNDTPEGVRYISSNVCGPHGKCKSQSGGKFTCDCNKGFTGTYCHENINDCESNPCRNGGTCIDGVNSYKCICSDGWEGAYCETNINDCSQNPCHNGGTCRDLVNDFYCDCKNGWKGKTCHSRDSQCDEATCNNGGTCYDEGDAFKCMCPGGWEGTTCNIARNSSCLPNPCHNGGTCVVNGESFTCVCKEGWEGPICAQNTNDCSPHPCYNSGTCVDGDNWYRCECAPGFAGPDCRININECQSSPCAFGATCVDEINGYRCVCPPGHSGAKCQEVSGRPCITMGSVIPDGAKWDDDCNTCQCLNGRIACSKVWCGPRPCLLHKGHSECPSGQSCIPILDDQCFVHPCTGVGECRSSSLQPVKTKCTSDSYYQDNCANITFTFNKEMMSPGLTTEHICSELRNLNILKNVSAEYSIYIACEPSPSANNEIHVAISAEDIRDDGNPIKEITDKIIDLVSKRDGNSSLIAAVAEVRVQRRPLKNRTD

Kd: 28.4 ± 6.6 µM
Structure (SMILES): [N-]=[N+]=N[C@]1(CO)O[C@@H](n2ccc(N)nc2=O)[C@@H](F)[C@@H]1O [FNC, 2′-deoxy-2′-β-fluoro-4′-azidocytidine]
